Literature values in patent US12496272B1, “Stable epinephrine suspension formulation for inhalation with HFO propellant” (Amphastar Pharmaceuticals, Inc., priority 2024, dated 2025).

| Water solubility (at 25° C.) [at 25 °C ppm] | Log P (octanol/water) | Structure (SMILES) |
| --- | --- | --- |
| 2220 | 1.1 | FCC(F)(F)F [HFA-134a, 1,1,1,2-tetrafluoroethane] |
|  | 2.1 | FC(C(F)(F)F)C(F)(F)F [HFA-227, 1,1,1,2,3,3,3-heptafluoropropane] |

| Structure (SMILES) | Water solubility (at 25° C.) [at 25 °C ppm] | Log P (octanol/water) |
| --- | --- | --- |
| F/C=C/C(F)(F)F [HFO-1234ze(E), trans-1,3,3,3-tetrafluoropropene] |  | 1.3 |
